The subject of test [1] is Mast cell. Kind of test: Inhibition of vancomycin-induced histamine release in rat peritoneal mast cells. In kind it is functional, cell-based.
The test system of test [2] is Mast cell. Kind of test: Inhibition of compound 48/80-induced histamine release in rat peritoneal mast cells. Format: functional, cell-based.
Test [3] concerns Mast cell. Put plainly: Inhibition of concanavalin A-induced histamine release in rat peritoneal mast cells. Format: functional, cell-based.
In test [4] the test system is Mus musculus. Put plainly: Inhibition of IgE-induced PCA reaction in albino Swiss mouse at 3 mg/kg administered intradermally. More on the design: Activity: scale not given: the % may be the effect or the level left. In kind it is functional. The note with it: for inhibition in vivo at 3 mg/kg: Mus musculus, albino Swiss.
Test [5] has as its system Mast cell. Kind of test: Inhibition of anti-IgE-induced histamine release in porcine lung mast cells at 20 uM. Format: functional. The note with it: Sus scrofa.
Test [6] has as its system Mast cell. Put plainly: Inhibition of A23187-induced histamine release in porcine peritoneal mast cells at 20 uM. Particulars: Sus scrofa. In kind it is functional.
For test [7], the system named is Mast cell. Put plainly: Inhibition of A23187-induced histamine release in rat peritoneal mast cells. Format: functional, cell-based.
The test system of test [8] is Mus musculus. Kind of test: Inhibition of IgE-induced PCA reaction in intradermally dosed albino Swiss mouse. In kind it is functional, organism-based.

Consider 6 compounds from ChEMBL document CHEMBL1667851, “Synthesis and pharmacological evaluation of the individual stereoisomers of 3-[methyl(1,2,3,4-tetrahydro-2-naphthalenyl)amino]-1-indanone, a potent mast cell stabilising agent” (Bioorg Med Chem Lett, 2011).

In the case of `CN([C@H]1CCc2ccccc2C1)[C@@H]1CC(=O)c2ccccc21`, the IC50 (in general, the point on the concentration scale where inhibition reaches its midpoint) in the test with Mast cell [1] was 12.6 µM; with Mast cell [2], 2.18 µM; in the test on Mast cell [3], 1.6 µM; with Mast cell [7], 6.97 µM. Further, the inhibition in vivo – broadly, the drop in the measured response relative to a control, in per cent – at 3 mg/kg in the test with Mus musculus [4] is 68%. In addition, the inhibition (in general, how much of the control response was suppressed) at 20 µM amounted to 81% in the test on Mast cell [5] and 48% in the test with Mast cell [6].
On to `CN([C@@H]1CCc2ccccc2C1)[C@@H]1CC(=O)c2ccccc21`, for which the IC50 came to 3.03 µM in the test with Mast cell [2], 13.1 µM in the test with Mast cell [3] and 9.48 µM in the test on Mast cell [7]. For the same compound, in the test on Mus musculus [4], the inhibition in vivo at 3 mg/kg is 77%. For the same compound, the inhibition at 20 µM was 89% in the test on Mast cell [5] and 22% in the test on Mast cell [6].
As to `CN([C@H]1CCc2ccccc2C1)[C@H]1CC(=O)c2ccccc21`, the IC50 was determined as 1.49 µM in the test with Mast cell [2], 1.6 µM with Mast cell [3] and 8.06 µM with Mast cell [7]. Further, in the test on Mus musculus [4], the inhibition in vivo at 3 mg/kg is 73%. Moreover, the inhibition at 20 µM worked out at 86% with Mast cell [5] and 40% in the test on Mast cell [6].
As to `CN([C@@H]1CCc2ccccc2C1)[C@H]1CC(=O)c2ccccc21`, the half-inhibitory concentration (IC50) with Mast cell [1] turned out to be 4.47 µM; in the test on Mast cell [2], 1.51 µM; in the test on Mast cell [3], 16.9 µM; in the test on Mast cell [7], 4.08 µM. In addition, the inhibition entry in the test with Mus musculus [8] is “Dose-dependent effect”. Also, the inhibition in vivo at 3 mg/kg in the test on Mus musculus [4] came to 111%. The figures for the inhibition at 20 µM in the test on Mast cell [5] and in the test with Mast cell [6] were 53% and 31%, respectively.
As for `CN(C1CCc2ccccc2C1)C1CC(=O)c2ccccc21` (centres undefined), in the test with Mus musculus [4], the inhibition in vivo at 3 mg/kg was found to be 83%.
The compound `O=C([O-])c1cc(=O)c2c(OCC(O)COc3cccc4oc(C(=O)[O-])cc(=O)c34)cccc2o1.[Na+].[Na+]` [CROMOLYN SODIUM] showed an Activity with Mus musculus [4] of 73%.
